# Laboratory results taken from patent US20220098197A1, “SALTS OF HETEROCYCLIC COMPOUND AND USE THEREOF” (priority 2019, published 2022).
# Assays:
# [1] = test system: RAW264.7 macrophages; experiment: RT-PCR analysis, LPS- or PGD2-stimulated RAW264.7; format: cell-based, mouse; details: CT-NA 10 and 100 μM, P<0.05 or P<0.01
# Protocol: For ELISA and RT-PCR, RAW 264.7 macrophages were acclimated to two 12-well plates at 70-80% confluence. Thereafter, the medium in the 12-well plate was replaced with serum-free RPMI-1640 medium for 10-12 hrs and then exposed to CT-NA (10 and 100 μM) for 1 hour. One hour later, one 12-well plate was treated with LPS (100 ng/ml) for 24 hrs, and the other was treated with PGD2 (10 μM) for 24 hrs. After the treatment, the supernatant of the treated cells was collected to measure the protein levels of TNF-α, IL-1β, IL-6, and KC using ELISA kits according to the method of the instructions. Subsequently, RNA samples from each treated plate were extracted and reverse-transcripted into cDNA with HiScript5xQRTSuperMix, and then subjected to RT-PCR using BioRad CFX96 Touch™ real-time PCR detection system (San Diego, Calif.). Similarly, total RNAs extracted from treated isolated peritoneal macrophages were subjected to analyze the mRNA levels of IL-10, TNF-α, IL-6 and KC. The primers used in the RT-PCR reaction were shown in Table 2. β-actin was used as an internal control. The RT-PCR reactions were triplicated and the relative expression of target mRNA was normalized by the respective β-actin.
# [2] = test system: LPS-induced ALI mice; experiment: LPS-induced ALI model: lung MPO activity assay; format: in vivo, Balb/c mice; details: CT-NA 10 or 30 mg/kg (P<0.01, dose dependence), Dex 1 mg/kg (P<0.01)
# Protocol: Specific pathogen-free (SPF) Balb/c mice (♂/♀; 20-26 g; 8 weeks old) were purchased from Shanghai SIPPR-BK Experimental Animal Co., Ltd. Mice were kept in an isolated ventilated cage in an environment of 40-60% humidity, 24±2° C., and 12 hrs/12 hrs dark-light cycle, and had free access to food and water. The method for preparing the LPS-induced ALI model was simply described as follows. The mice were randomly divided into a control group (12 mice) and an LPS group (48 mice). The LPS group (48 mice) was further divided into four subgroups (12 mice in each subgroup). The unanaesthetized mice in the four subgroups of LPS were intragastrically administered with normal saline (NS), CT-NA at 10 mg/kg or 30 mg/kg, and Dex at 1 mg/kg, respectively. One hour later, the mice were anesthetized with sodium pentobarbital (intraperitoneal injection at 40 mg/kg), and then subjected to intratracheal instillation of NS to control group and LPS (4 mg/kg) to all LPS subgroups. […] 24 hrs after LPS challenge, the oxygen saturation (SO2) of all mice was measured by a Moor VMS-OXY™ instrument which measured SO2 (%) in the microcirculation at the wavelength range of 500 to 650 nm.
# The MPO activity assay procedure was as follows. […] Then MPO activity was determined by measuring the changes in absorbance at 460 nm via the standard curves by using MPO assay kits.
# [3] = test system: RAW 264.7 macrophages; experiment: Cell viability (MTT) assay with CSE/PGD2; format: cell-based, mouse; details: 24 hrs
# Protocol: The cell lines of RAW 264.7 macrophages and mouse leukemic mononuclear macrophages were purchased from American Type Culture Collection (ATCC, Manassas, Va., USA). RAW 264.7 macrophage was cultured in RPMI-1640 medium containing penicillin (100 U/ml), streptomycin (100 μg/ml) and 10% FBS. The cytotoxicity of CT-NA (0-100 μM) alone, and in a combination of PGD2 (0-100 μM) and CSE (1-10%) on RAW264.7 macrophage was assessed using methylthiazole-tetrazole (MTT) assay according to the manufacturer's protocol. Briefly, RAW 264.7 macrophages were seeded in a 96-well plate at a concentration of 4×10^5 cells/ml for 24 hrs, and then exposed to CT-NA (0-100 μM) at 37° C. for 1 hour. Next, RAW 264.7 macrophages were further exposed to CSE (4%) and PGD2 (10 μM) for 24 hrs, and then treated with MTT (5 mg/ml) at 37° C. for 4 hrs. Then, the supernatant of each well was replaced with DMSO (200 μl/well), and the absorbance at 570 nm was measured.
# [4] = test system: isolated peritoneal macrophages; experiment: RT-PCR analysis, LPS- or PGD2-stimulated peritoneal macrophages; format: cell-based, mice; details: CT-NA 10 and 100 μM, P<0.05 or P<0.01
# Protocol: The method was briefly described as follows. Thioglycolate (4%) was intraperitoneally injected to mice at a dose of 20 ml/kg of body weight for three consecutive days. 48 h after the last thioglycolate injection (on day 5), the peritoneal macrophages were isolated from the peritoneal lavage of the euthanized mice. The isolated peritoneal macrophages were added to a 12-well plate (4×10^5/well) and cultured at 37° C. Non-adherent cells were removed by gently washing three times with warm PBS. At this time, more than 90% of the cells were macrophages, which were cultured in DMEM/high glucose medium containing penicillin (100 U/ml), streptomycin (100 μg/ml) and 10% FBS at 37° C. After acclimation, serum-free DMEM/high glucose was added to a 12-well plate for 10-12 hrs, and then treated with different concentrations of LPS ([…]) for 24 hrs. Afterward, the supernatant of the peritoneal macrophages was collected to measure the protein level of PGD2 using ELISA kits according to the method of the instructions.
# For ELISA and RT-PCR, RAW 264.7 macrophages were acclimated to two 12-well plates at 70-80% confluence. Thereafter, the medium in the 12-well plate was replaced with serum-free RPMI-1640 medium for 10-12 hrs and then exposed to CT-NA (10 and 100 μM) for 1 hour. […]
# [5] = test system: CS-induced ALI mice; experiment: CS-induced lung injury model: inflammatory cells counting in BALF; format: in vivo, Balb/c mice; details: intragastric before CS exposure, 7 days; CT-NA 10 and 30 mg/kg, Dex 1 mg/kg; BALF 24 hrs after last CS; p<0.01
# Protocol: Specific pathogen-free (SPF) female Balb/c mice (22-28 g; aged 8 weeks) were purchased from Shanghai SIPPR-BK Experimental Animal Co., Ltd. […] Model preparation: The mice were randomly divided into 5 groups (12 mice in each group), which were the control group (the mice were exposed to fresh air), the saline group (the mice were exposed to cigarette smoke), dexamethasone (Dex) group (1 mg/kg) (the mice were exposed to cigarette smoke), CT-NA 10 mg/kg group and CT-NA 30 mg/kg group (the mice were exposed to cigarette smoke). According to the grouping, the mice were intragastrically administered saline, Dex and CT-NA, respectively. Thereafter, the mice were exposed to fresh air or cigarette smoke generated from 3R4F research-grade cigarettes (containing about 600 mg TPM/m^3 and 29.9 mg nicotine/m^3) in a cuboid plastic box (65×50x×45 cm). Ten cigarettes were burned every day for seven days. […] 24 hrs after the last exposure to the cigarette smoke, the partial pressure of oxygen (PO2) of all mice was measured by the Moor VMS-OXY™ measuring instrument, which was used to measure the oxygenated/deoxygenated hemoglobin concentration and oxygen saturation (percentage) in the microcirculation at the wavelength range of 500 to 650 nm. […] The supernatant was aliquoted and stored at −80° C. until the cytokine or albumin concentration was measured. […]
smiles,measurement,setting,value
CN([C@@H]1CCc2c(CC(=O)[O-])c3cccnc3n2C1)S(=O)(=O)c1ccc(F)cc1.[Na+] [Sodium salt hydrate],"mRNA expressions of IL-1β, TNF-α, IL-6 and KC, LPS-stimulated","[1]; LPS, dose-dependent",reduced
same,"mRNA expressions of IL-1β, TNF-α, IL-6 and KC, PGD2-stimulated","[1]; PGD2, dose-dependent",reduced
same,MPO activity in lung tissues,[2],remarkably reduced
same,"cytotoxicity (MTT), CSE plus CT-NA",[3]; CSE 4% plus CT-NA up to 100 μM,non-toxic
same,"cytotoxicity (MTT), PGD2 plus CT-NA",[3]; PGD2 (10 μM) plus CT-NA up to 100 μM,non-toxic
same,"mRNA expressions of IL-1β, TNF-α, IL-6 and KC, LPS-stimulated","[4]; LPS, dose-dependent",reduced
same,"mRNA expressions of IL-1β, TNF-α, IL-6 and KC, PGD2-stimulated","[4]; PGD2, dose-dependent",reduced
same,"number of total cells, macrophages and neutrophils in BALF",[5],significantly reduced
